Reference: patent publication US12077503B2, “Substituted cyclic amides and their use as herbicides” (FMC CORPORATION, priority 2015, dated 2024)

Assays:
Test in all cases: Test C preemergence
Format in all cases: in vivo
[1] = system: Galium (catchweed bedstraw, Galium aparine); details: for Plant response rating, Galium: scale 0 to 100, 0 no effect, 100 complete control
Procedure, shortened: (§1)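 Seeds in loam-sand soil treated preemergence, or plants in peat-based medium sprayed postemergence at 2–18 cm (1- to 4-leaf stage), with compound in a non-phytotoxic solvent mixture containing surfactant. Greenhouse-held 13–15 d, then visually rated against controls on a 0–100 scale (0 = no effect, 100 = complete control); dash = not tested.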

[2] = system: barnyardgrass (Echinochloa crus-galli); details: for Plant response rating, Barnyardgrass: scale 0 to 100, 0 no effect, 100 complete control
Procedure, shortened: as §1

[3] = system: blackgrass (Alopecurus myosuroides); details: for Plant response rating, Blackgrass: scale 0 to 100, 0 no effect, 100 complete control
Procedure, shortened: as §1

corn (Zea mays) = details: for Plant response rating, Corn: scale 0 to 100, 0 no effect, 100 complete control
Procedure, shortened: as §1

[4] = system: crabgrass, large (large crabgrass, Digitaria sanguinalis); details: for Plant response rating, Crabgrass, Large: scale 0 to 100, 0 no effect, 100 complete control
Procedure, shortened: as §1

[5] = system: foxtail, giant (giant foxtail, Setaria faberii); details: for Plant response rating, Foxtail, Giant: scale 0 to 100, 0 no effect, 100 complete control
Procedure, shortened: as §1

[6] = system: johnsongrass (Sorghum halepense); details: for Plant response rating, Johnsongrass: scale 0 to 100, 0 no effect, 100 complete control
Procedure, shortened: as §1

[7] = system: lambsquarters (Chenopodium album); details: for Plant response rating, Lambsquarters: scale 0 to 100, 0 no effect, 100 complete control
Procedure, shortened: as §1

[8] = system: morningglory (Ipomoea coccinea); details: for Plant response rating, Morningglory: scale 0 to 100, 0 no effect, 100 complete control
Procedure, shortened: as §1

[9] = system: nutsedge, yellow (yellow nutsedge, Cyperus esculentus); details: for Plant response rating, Nutsedge, Yellow: scale 0 to 100, 0 no effect, 100 complete control
Procedure, shortened: as §1

[10] = system: oilseed rape (Brassica napus); details: for Plant response rating, Oilseed Rape: scale 0 to 100, 0 no effect, 100 complete control
Procedure, shortened: as §1

[11] = system: pigweed (Amaranthus retroflexus); details: for Plant response rating, Pigweed: scale 0 to 100, 0 no effect, 100 complete control
Procedure, shortened: as §1

[12] = system: ryegrass, Italian (Italian ryegrass, Lolium multiflorum); details: for Plant response rating, Ryegrass, Italian: scale 0 to 100, 0 no effect, 100 complete control
Procedure, shortened: as §1

soybean (Glycine max) = details: for Plant response rating, Soybean: scale 0 to 100, 0 no effect, 100 complete control
Procedure, shortened: as §1

[13] = system: velvetleaf (Abutilon theophrasti); details: for Plant response rating, Velvetleaf: scale 0 to 100, 0 no effect, 100 complete control
Procedure, shortened: as §1

[14] = system: waterhemp (common waterhemp, Amaranthus rudis); details: for Plant response rating, Waterhemp: scale 0 to 100, 0 no effect, 100 complete control
Procedure, shortened: as §1

[15] = system: wheat (winter wheat, Triticum aestivum); details: for Plant response rating, Wheat: scale 0 to 100, 0 no effect, 100 complete control
Procedure, shortened: as §1

[16] = 31 g ai/ha, 0 is no effect, 100 is complete control

For `CN1CC(c2cc(F)cc(F)c2)C(C(=O)Nc2ccc(F)c(F)c2F)C1=O` (centres unmarked) [Compound 646], which “Plant response rating (scale of 0 to 100), Galium” value [1, 16] is on record?
The value was 90.

And the “Plant response rating, Galium” value ([1]; 62 g ai/ha)?
The value was 90.

And the “Plant response rating, Galium” value ([1]; 125 g ai/ha)?
The value was 90.

And the “Plant response rating, Galium” value ([1]; 250 g ai/ha)?
Its value is 100.

And the “Plant response rating (scale of 0 to 100), Barnyardgrass” value [2, 16]?
The value was 90.

What about the “Plant response rating, Barnyardgrass” value ([2]; 62 g ai/ha) of the same compound?
The value was 95.

What about the “Plant response rating, Barnyardgrass” value ([2]; 125 g ai/ha) of the same compound?
Its value is 98.

What about the “Plant response rating, Barnyardgrass” value ([2]; 250 g ai/ha) of the same compound?
Its value is 98.

And the “Plant response rating (scale of 0 to 100), Blackgrass” value [3, 16]?
The value was 80.

And the “Plant response rating, Blackgrass” value ([3]; 62 g ai/ha)?
Its value is 80.

And the “Plant response rating, Blackgrass” value ([3]; 125 g ai/ha)?
The value was 85.

What about the “Plant response rating, Blackgrass” value ([3]; 250 g ai/ha) of the same compound?
Its value is 98.

And the “Plant response rating (scale of 0 to 100), Corn” value (corn (Zea mays); [16])?
The value was 35.

And the “Plant response rating, Corn” value (corn (Zea mays); 62 g ai/ha)?
The value was 45.

What about the “Plant response rating, Corn” value (corn (Zea mays); 125 g ai/ha) of the same compound?
Its value is 65.

And the “Plant response rating, Corn” value (corn (Zea mays); 250 g ai/ha)?
The value was 75.

And the “Plant response rating (scale of 0 to 100), Crabgrass, Large” value [4, 16]?
Its value is 95.

And the “Plant response rating, Crabgrass, Large” value ([4]; 62 g ai/ha)?
The value was 95.

And the “Plant response rating, Crabgrass, Large” value ([4]; 125 g ai/ha)?
Its value is 98.

And the “Plant response rating, Crabgrass, Large” value ([4]; 250 g ai/ha)?
Its value is 100.

And the “Plant response rating (scale of 0 to 100), Foxtail, Giant” value [5, 16]?
Its value is 95.

What about the “Plant response rating, Foxtail, Giant” value ([5]; 62 g ai/ha) of the same compound?
Its value is 95.

What about the “Plant response rating, Foxtail, Giant” value ([5]; 125 g ai/ha) of the same compound?
The value was 95.

And the “Plant response rating, Foxtail, Giant” value ([5]; 250 g ai/ha)?
The value was 98.

What about the “Plant response rating (scale of 0 to 100), Johnsongrass” value [6, 16] of the same compound?
The value was 35.

What about the “Plant response rating, Johnsongrass” value ([6]; 62 g ai/ha) of the same compound?
Its value is 40.

What about the “Plant response rating, Johnsongrass” value ([6]; 125 g ai/ha) of the same compound?
The value was 85.

What about the “Plant response rating, Johnsongrass” value ([6]; 250 g ai/ha) of the same compound?
The value was 90.

What about the “Plant response rating (scale of 0 to 100), Lambsquarters” value [7, 16] of the same compound?
The value was 40.

And the “Plant response rating, Lambsquarters” value ([7]; 62 g ai/ha)?
The value was 60.

What about the “Plant response rating, Lambsquarters” value ([7]; 125 g ai/ha) of the same compound?
Its value is 75.

And the “Plant response rating, Lambsquarters” value ([7]; 250 g ai/ha)?
The value was 80.

What about the “Plant response rating (scale of 0 to 100), Morningglory” value [8, 16] of the same compound?
Its value is 0.

What about the “Plant response rating, Morningglory” value ([8]; 62 g ai/ha) of the same compound?
Its value is 0.

What about the “Plant response rating, Morningglory” value ([8]; 125 g ai/ha) of the same compound?
Its value is 0.

And the “Plant response rating, Morningglory” value ([8]; 250 g ai/ha)?
The value was 10.

And the “Plant response rating (scale of 0 to 100), Nutsedge, Yellow” value [9, 16]?
Its value is 0.

What about the “Plant response rating, Nutsedge, Yellow” value ([9]; 62 g ai/ha) of the same compound?
The value was 0.

And the “Plant response rating, Nutsedge, Yellow” value ([9]; 125 g ai/ha)?
The value was 0.

What about the “Plant response rating, Nutsedge, Yellow” value ([9]; 250 g ai/ha) of the same compound?
Its value is 35.

And the “Plant response rating (scale of 0 to 100), Oilseed Rape” value [10, 16]?
Its value is 15.

And the “Plant response rating, Oilseed Rape” value ([10]; 62 g ai/ha)?
The value was 80.

What about the “Plant response rating, Oilseed Rape” value ([10]; 125 g ai/ha) of the same compound?
The value was 85.

And the “Plant response rating, Oilseed Rape” value ([10]; 250 g ai/ha)?
The value was 90.

What about the “Plant response rating (scale of 0 to 100), Pigweed” value [11, 16] of the same compound?
The value was 0.

What about the “Plant response rating, Pigweed” value ([11]; 62 g ai/ha) of the same compound?
The value was 10.

What about the “Plant response rating, Pigweed” value ([11]; 125 g ai/ha) of the same compound?
The value was 65.

And the “Plant response rating, Pigweed” value ([11]; 250 g ai/ha)?
The value was 75.

What about the “Plant response rating (scale of 0 to 100), Ryegrass, Italian” value [12, 16] of the same compound?
Its value is 30.

What about the “Plant response rating, Ryegrass, Italian” value ([12]; 62 g ai/ha) of the same compound?
The value was 20.

What about the “Plant response rating, Ryegrass, Italian” value ([12]; 125 g ai/ha) of the same compound?
Its value is 80.

What about the “Plant response rating, Ryegrass, Italian” value ([12]; 250 g ai/ha) of the same compound?
Its value is 90.

What about the “Plant response rating (scale of 0 to 100), Soybean” value (soybean (Glycine max); [16]) of the same compound?
Its value is 0.

What about the “Plant response rating, Soybean” value (soybean (Glycine max); 62 g ai/ha) of the same compound?
The value was 0.

What about the “Plant response rating, Soybean” value (soybean (Glycine max); 125 g ai/ha) of the same compound?
Its value is 10.

And the “Plant response rating, Soybean” value (soybean (Glycine max); 250 g ai/ha)?
Its value is 0.

And the “Plant response rating (scale of 0 to 100), Velvetleaf” value [13, 16]?
Its value is 15.

And the “Plant response rating, Velvetleaf” value ([13]; 62 g ai/ha)?
Its value is 25.

And the “Plant response rating, Velvetleaf” value ([13]; 125 g ai/ha)?
Its value is 55.

What about the “Plant response rating, Velvetleaf” value ([13]; 250 g ai/ha) of the same compound?
Its value is 60.

What about the “Plant response rating (scale of 0 to 100), Waterhemp” value [14, 16] of the same compound?
The value was 65.

And the “Plant response rating, Waterhemp” value ([14]; 62 g ai/ha)?
The value was 60.

And the “Plant response rating, Waterhemp” value ([14]; 125 g ai/ha)?
The value was 75.

What about the “Plant response rating, Waterhemp” value ([14]; 250 g ai/ha) of the same compound?
Its value is 85.

And the “Plant response rating (scale of 0 to 100), Wheat” value [15, 16]?
Its value is 35.

What about the “Plant response rating, Wheat” value ([15]; 62 g ai/ha) of the same compound?
The value was 80.

And the “Plant response rating, Wheat” value ([15]; 125 g ai/ha)?
Its value is 85.

What about the “Plant response rating, Wheat” value ([15]; 250 g ai/ha) of the same compound?
The value was 90.
